Laboratory results taken from patent US4532255A, “Amidine compounds and anticomplement agent comprising same” (Torii & Co., Ltd., priority 1980, dated 1985).
Read-outs that look alike come from different tables or passages of the source.

Legend:
[1] = target: T1, Trypsin (Bos taurus, UniProt P00760); test: Anti-trypsin activity (hydrolysis of TAME); type: biochemical; settings: for inhibition at 10 µM: at 1×10^-5 M, read-out: Trypsin percentage inhibition; for IC50: molar concentration inhibiting 50% of TAME hydrolysis, read-out: Trypsin ID50
T1 sequence (P00760 24-246): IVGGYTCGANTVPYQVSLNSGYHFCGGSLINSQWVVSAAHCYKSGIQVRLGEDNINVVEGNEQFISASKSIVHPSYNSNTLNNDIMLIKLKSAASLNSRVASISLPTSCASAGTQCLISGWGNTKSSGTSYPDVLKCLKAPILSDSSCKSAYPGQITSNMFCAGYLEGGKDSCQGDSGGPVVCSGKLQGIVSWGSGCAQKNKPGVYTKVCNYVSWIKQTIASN
Method: (§1) The anti-trypsin, anti-plasmin, anti-kallikrein and anti-thrombin activities were determined according to the method of Muramatsu et al. [M. Muramatsu, T. Onishi, S. Makino, Y. Hayashi and S. Fujii, J. of Biochem., 58, 214 (1965)]. […] The compound No. corresponds to the compound number shown in Examples.

[2] = target: Plasmin (Homo sapiens, UniProt P00747); test: Anti-plasmin activity (hydrolysis of TAME); type: biochemical; settings: for IC50: molar concentration inhibiting 50% of TAME hydrolysis, read-out: Plasmin ID50; for inhibition at 10 µM: at 1×10^-5 M, read-out: Plasmin percentage inhibition
Sequence of Plasmin (P00747 581-810 limits assumed, species assumed): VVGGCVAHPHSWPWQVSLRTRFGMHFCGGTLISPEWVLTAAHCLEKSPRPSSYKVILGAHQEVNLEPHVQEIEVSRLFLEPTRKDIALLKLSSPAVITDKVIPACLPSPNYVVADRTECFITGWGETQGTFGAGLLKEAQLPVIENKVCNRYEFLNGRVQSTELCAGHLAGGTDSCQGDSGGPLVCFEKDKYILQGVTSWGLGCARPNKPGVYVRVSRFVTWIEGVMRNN
Sequence of Plasmin (P00747 97-580 partner limits assumed, species assumed): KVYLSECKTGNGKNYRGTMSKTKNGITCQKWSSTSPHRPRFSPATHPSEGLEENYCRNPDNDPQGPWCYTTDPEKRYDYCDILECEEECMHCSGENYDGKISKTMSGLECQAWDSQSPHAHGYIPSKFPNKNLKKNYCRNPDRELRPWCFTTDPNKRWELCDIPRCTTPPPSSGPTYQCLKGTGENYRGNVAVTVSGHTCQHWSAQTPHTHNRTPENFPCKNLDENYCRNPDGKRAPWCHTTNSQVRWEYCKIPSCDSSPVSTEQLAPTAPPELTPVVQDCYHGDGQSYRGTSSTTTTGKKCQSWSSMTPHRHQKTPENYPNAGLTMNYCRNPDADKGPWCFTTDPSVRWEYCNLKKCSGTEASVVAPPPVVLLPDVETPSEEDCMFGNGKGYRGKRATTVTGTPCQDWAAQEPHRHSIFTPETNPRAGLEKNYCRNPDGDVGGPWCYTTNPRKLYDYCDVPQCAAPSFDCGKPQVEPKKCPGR
Method: as §1

[3] = target: Thrombin (Homo sapiens, UniProt P00734); test: biochemical; settings: for IC50: molar concentration inhibiting 50% of TAME hydrolysis, read-out: Thrombin ID50; for inhibition at 10 µM: at 1×10^-5 M, read-out: Thrombin percentage inhibition
Method: (§2) The anti-trypsin, anti-plasmin, anti-kallikrein and anti-thrombin activities were determined according to the method of Muramatsu et al. [M. Muramatsu, T. Onishi, S. Makino, Y. Hayashi and S. Fujii, J. of Biochem., 58, 214 (1965)]. The data summarized in Table 1 are expressed in terms of molar concentration (ID50) of the test compound which inhibits 50% of the activity of each enzyme to hydrolyze TAME (tosylalginine methyl ester). The compound No. corresponds to the compound number shown in Examples.

[4] = target: T2, C1r (Homo sapiens, UniProt P00736); test: Anti-C1 esterase (C1r) activity (hydrolysis of AAME); type: biochemical; settings: for IC50: AAME hydrolysis, read-out: Anti-C1 activity, C1r ID50; for inhibition at 10 µM: at 1×10^-5 M, read-out: Anti-C1 activity, C1r percent inhibition
T2 sequence (P00736 464-705 limits assumed): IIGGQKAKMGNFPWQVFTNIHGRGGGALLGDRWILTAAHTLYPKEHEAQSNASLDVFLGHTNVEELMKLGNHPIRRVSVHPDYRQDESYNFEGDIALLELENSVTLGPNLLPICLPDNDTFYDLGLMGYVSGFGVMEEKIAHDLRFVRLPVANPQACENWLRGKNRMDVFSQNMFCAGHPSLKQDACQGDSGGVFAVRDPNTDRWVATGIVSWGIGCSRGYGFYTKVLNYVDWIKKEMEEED
T2 sequence (P00736 18-463 partner limits assumed): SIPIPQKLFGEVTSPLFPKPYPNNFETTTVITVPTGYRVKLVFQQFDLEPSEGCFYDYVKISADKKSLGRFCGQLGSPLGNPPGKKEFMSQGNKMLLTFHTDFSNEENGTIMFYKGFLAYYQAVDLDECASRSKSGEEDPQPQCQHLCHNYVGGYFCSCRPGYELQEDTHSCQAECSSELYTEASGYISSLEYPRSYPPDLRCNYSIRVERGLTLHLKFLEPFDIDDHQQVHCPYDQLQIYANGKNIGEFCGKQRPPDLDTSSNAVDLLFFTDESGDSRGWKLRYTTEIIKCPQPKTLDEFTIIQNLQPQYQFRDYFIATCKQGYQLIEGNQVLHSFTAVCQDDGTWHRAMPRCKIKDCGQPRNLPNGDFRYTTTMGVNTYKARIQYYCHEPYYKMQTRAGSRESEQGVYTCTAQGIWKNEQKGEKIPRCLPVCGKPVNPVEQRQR
Method: The anti-Cl esterase ([…]) activity was determined according to the method of Okamura et al. [K. Okamura, M. Muramatsu and S. Fujii, Biochem. Biophys.

[5] = target: T3, C1s (Homo sapiens, UniProt P09871); test: biochemical
T3 sequence (P09871 438-688 limits assumed): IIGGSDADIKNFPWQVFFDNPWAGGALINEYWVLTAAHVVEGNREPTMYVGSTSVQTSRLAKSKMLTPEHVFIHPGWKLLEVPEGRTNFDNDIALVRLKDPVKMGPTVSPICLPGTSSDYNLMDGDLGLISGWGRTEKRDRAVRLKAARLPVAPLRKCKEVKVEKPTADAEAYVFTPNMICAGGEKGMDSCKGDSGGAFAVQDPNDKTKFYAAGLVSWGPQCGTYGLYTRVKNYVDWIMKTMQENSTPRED
T3 sequence (P09871 16-437 partner limits assumed): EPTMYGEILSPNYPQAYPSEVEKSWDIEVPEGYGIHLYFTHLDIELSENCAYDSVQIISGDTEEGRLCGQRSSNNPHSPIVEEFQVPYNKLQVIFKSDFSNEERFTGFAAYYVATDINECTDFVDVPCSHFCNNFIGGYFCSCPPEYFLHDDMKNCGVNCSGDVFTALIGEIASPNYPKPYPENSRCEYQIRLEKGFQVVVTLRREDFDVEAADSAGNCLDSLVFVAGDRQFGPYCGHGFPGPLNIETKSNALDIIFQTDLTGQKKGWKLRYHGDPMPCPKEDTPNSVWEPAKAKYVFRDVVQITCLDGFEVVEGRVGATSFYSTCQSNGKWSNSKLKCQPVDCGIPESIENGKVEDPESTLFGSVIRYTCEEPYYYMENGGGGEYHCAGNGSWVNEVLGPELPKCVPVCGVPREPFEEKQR
Method: The anti-Cl esterase (Clr, Cls) activity was determined according to the method of Okamura et al. [K. Okamura, M. Muramatsu and S. Fujii, Biochem. Biophys. […] The figures in Table 2 have the following meanings:
Cls: Molar concentration of the test compound which inhibits 50% of the ability of Cls to hydrolyse ATEE (acetyltyrosin ethyl ester).

[6] = system: complement mediated hemolysis; test: Inhibition of complement mediated hemolysis; type: cell-based
Method: The principle of this method is based on the fact that hemolysis is caused by the activation of complement, when the latter is added to a complex (immune complex) of erythrocytes and the antibody thereof. The degree of hemolysis varies in proportion to the amount of complement added. Therefore, when a known amount of complement admixed with a C1 esterase inhibitor is used, the hemolysis must be suppressed in proportion to the inhibitory activity.

[7] = system: Kallikrein; test: Anti-kallikrein activity (hydrolysis of TAME); type: biochemical; settings: at 1×10^-5 M
[8] = system: Kallikrein; test: Anti-kallikrein activity (hydrolysis of TAME); type: biochemical; settings: molar concentration inhibiting 50% of TAME hydrolysis; read-out: Kallikrein ID50
Method: as §2

[9] = ATEE hydrolysis, read-out: Anti-C1 activity, C1s ID50

| SMILES | inhibition at 10 µM [1] [%] | IC50 [2] [µM] | IC50 [3] [µM] | IC50 [4] [µM] | IC50 [5, 9] [µM] | Inhibition of complement mediated hemolysis (%) ([6]; 1 × 10^-4) | Inhibition of complement mediated hemolysis (%) ([6]; 1 × 10^-5) | Inhibition of complement mediated hemolysis (%) ([6]; 1 × 10^-6) | Inhibition of complement mediated hemolysis (%) ([6]; 1 × 10^-7) | Kallikrein percentage inhibition [7] [%] | IC50 [1] [µM] | inhibition at 10 µM [3] [%] | inhibition at 10 µM [2] [%] | inhibition at 10 µM [4] [%] | IC50 [8] [µM] | IC50 [5] [µM] |
| --- | --- | --- | --- | --- | --- | --- | --- | --- | --- | --- | --- | --- | --- | --- | --- | --- |
| N#Cc1ccc(C(=O)Oc2ccc3cc(C(=N)N)ccc3c2)cc1 [Compound 19] | 47 | 3 | 2 | 4 | 8 | 98 | 86 | 22 | 1 | 11 | – | – | – | – | – | – |
| COc1ccc(CCC(=O)Oc2ccc3cc(C(=N)N)ccc3c2)cc1OC [Compound 49] | – | 4 | – | – | – | – | – | – | – | 29 | 2 | 17 | – | – | – | – |
| N=C(N)c1ccc2cc(OC(=O)c3ccc(OCc4ccccc4)cc3)ccc2c1 [Compound 9] | – | – | – | – | – | – | – | – | – | 19 | 0.04 | 20 | 48 | – | – | – |
| COc1ccc(C(=O)Oc2ccc3cc(C(=N)N)ccc3c2)cc1 [Compound 7] | – | 3 | 3 | 0.1 | 0.2 | 51 | 78 | 21 | 0 | 46 | – | – | – | – | – | – |
| N=C(N)c1ccc2cc(OC(=O)c3ccc(Cl)cc3)ccc2c1 [Compound 16] | – | 0.5 | – | – | 0.4 | 99 | 77 | 24 | 10 | 31 | 3 | 38 | – | 39 | – | – |
| N=C(N)c1ccc2cc(OC(=O)c3ccc(S(N)(=O)=O)cc3)ccc2c1 [Compound 29] | – | 2 | 2 | – | – | – | – | – | – | 42 | 10 | – | – | – | – | – |
| N=C(N)Nc1ccc(C=CC(=O)Oc2ccc3cc(C(=N)N)ccc3c2)cc1 [Compound 64, 6-amidino-2-naphthyl 4-guanidinocinnamate] | – | 10 | > 10 | – | 3 | – | 39 | 17 | 19 | – | 2 | – | – | 14 | 4 | – |
| N=C(N)c1ccc2cc(OC(=O)c3ccc(C=O)cc3)ccc2c1 [Compound 31] | – | 0.4 | 0.3 | 2 | 3 | 98 | 99 | 92 | 76 | – | 4 | – | – | – | > 10 | – |
| COc1ccccc1OCC(=O)Oc1ccc2cc(C(=N)N)ccc2c1 [Compound 68] | – | > 10 | 10 | > 10 | > 10 | 91 | 4 | 0 | 0 | – | > 10 | – | – | – | > 10 | – |
| CC(=O)Oc1ccccc1C(=O)Oc1ccc2cc(C(=N)N)ccc2c1 [Compound 12] | 24 | – | > 10 | 3 | 3 | 87 | 55 | 27 | 3 | – | – | – | 40 | – | > 10 | – |
| N=C(N)c1ccc2cc(OC(=O)c3ccc(F)cc3)ccc2c1 [Compound 15] | – | 1 | 2 | – | – | 98 | 89 | 23 | 2 | 38 | 3 | – | – | – | – | 0.3 |
| N=C(N)c1ccc2cc(OC(=O)c3ccc(Br)cc3)ccc2c1 [Compound 17] | – | 2 | – | 0.7 | 0.5 | 98 | 72 | 9 | 0 | 23 | 4 | – | – | – | – | – |
| N=C(N)c1ccc2cc(OC(=O)C=Cc3cccc(C(F)(F)F)c3)ccc2c1 [Compound 66] | – | 0.5 | – | 6 | 4 | 60 | 6 | 1 | 1 | – | 6 | 21 | – | – | > 10 | – |
| N=C(N)c1ccc2cc(OC(=O)C=Cc3ccc(N)cc3)ccc2c1 [Compound 63, 6-amidino-2-naphthyl 4-aminocinnamate] | – | 8 | > 10 | – | 0.4 | 73 | 37 | 26 | 42 | – | 2 | – | – | 15 | 4 | – |
| N=C(N)c1ccc2cc(OC(=O)c3ccc([N+](=O)[O-])cc3)ccc2c1 [Compound 18, 6-amidino-2-naphthyl 4-nitrobenzoate] | – | 3 | 2 | 4 | 4 | 92 | 97 | 56 | 20 | – | 10 | – | – | – | > 10 | – |
